Experiments:
[1] = molecular target: T1, Saccharomyces cerevisiae dihydroorotase (DHOase) (Saccharomyces cerevisiae, UniProt P20051); test: spectrophotometric assay of dihydroorotate hydrolysis at […] nm with purified recombinant enzyme; type: biochemical
T1 construct: gene URA4
T1 sequence (P20051 1-364): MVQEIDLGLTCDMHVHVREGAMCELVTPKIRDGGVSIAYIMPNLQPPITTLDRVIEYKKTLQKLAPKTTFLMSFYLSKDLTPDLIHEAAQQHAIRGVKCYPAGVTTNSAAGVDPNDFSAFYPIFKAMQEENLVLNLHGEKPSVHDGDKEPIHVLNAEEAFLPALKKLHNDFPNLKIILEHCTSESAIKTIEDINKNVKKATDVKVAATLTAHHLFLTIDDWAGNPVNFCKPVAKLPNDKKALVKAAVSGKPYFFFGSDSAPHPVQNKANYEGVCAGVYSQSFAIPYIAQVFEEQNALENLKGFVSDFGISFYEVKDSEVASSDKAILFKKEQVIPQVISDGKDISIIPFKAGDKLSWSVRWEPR

[2] = molecular target: T1, Saccharomyces cerevisiae dihydroorotase (DHOase); test: spectrophotometric assay of dihydroorotate hydrolysis at […] nm with purified recombinant enzyme; […] inhibition at […]; type: biochemical

Compound	IC50 [1]	IC50 [2]
O=c1c(O)c(-c2cc(O)c(O)c(O)c2)oc2cc(O)cc(O)c12 [myricetin]	12.5 ± 0.47 µM	–
O=C(O)c1[nH]c(=O)[nH]c(=O)c1F [5-FOA]	–	> 600 µM
